Test results from patent US20260109690A1, “HDAC6 INHIBITORS AND METHOD OF THEIR USE” (Baerenkraft Therapeutics, LLC., priority 2024, published 2026).
Counter-ions that a name gives are not always drawn.

biological target: T1, HDAC6 (Homo sapiens, UniProt Q9UBN7); assay: Biochemical HDAC6 inhibitory activity assay; details: 10-dose IC50 mode, in singlet, 3-fold serial dilution starting at 1 μM; read-out: HDAC6 IC50
T1 sequence (Q9UBN7 1-1215): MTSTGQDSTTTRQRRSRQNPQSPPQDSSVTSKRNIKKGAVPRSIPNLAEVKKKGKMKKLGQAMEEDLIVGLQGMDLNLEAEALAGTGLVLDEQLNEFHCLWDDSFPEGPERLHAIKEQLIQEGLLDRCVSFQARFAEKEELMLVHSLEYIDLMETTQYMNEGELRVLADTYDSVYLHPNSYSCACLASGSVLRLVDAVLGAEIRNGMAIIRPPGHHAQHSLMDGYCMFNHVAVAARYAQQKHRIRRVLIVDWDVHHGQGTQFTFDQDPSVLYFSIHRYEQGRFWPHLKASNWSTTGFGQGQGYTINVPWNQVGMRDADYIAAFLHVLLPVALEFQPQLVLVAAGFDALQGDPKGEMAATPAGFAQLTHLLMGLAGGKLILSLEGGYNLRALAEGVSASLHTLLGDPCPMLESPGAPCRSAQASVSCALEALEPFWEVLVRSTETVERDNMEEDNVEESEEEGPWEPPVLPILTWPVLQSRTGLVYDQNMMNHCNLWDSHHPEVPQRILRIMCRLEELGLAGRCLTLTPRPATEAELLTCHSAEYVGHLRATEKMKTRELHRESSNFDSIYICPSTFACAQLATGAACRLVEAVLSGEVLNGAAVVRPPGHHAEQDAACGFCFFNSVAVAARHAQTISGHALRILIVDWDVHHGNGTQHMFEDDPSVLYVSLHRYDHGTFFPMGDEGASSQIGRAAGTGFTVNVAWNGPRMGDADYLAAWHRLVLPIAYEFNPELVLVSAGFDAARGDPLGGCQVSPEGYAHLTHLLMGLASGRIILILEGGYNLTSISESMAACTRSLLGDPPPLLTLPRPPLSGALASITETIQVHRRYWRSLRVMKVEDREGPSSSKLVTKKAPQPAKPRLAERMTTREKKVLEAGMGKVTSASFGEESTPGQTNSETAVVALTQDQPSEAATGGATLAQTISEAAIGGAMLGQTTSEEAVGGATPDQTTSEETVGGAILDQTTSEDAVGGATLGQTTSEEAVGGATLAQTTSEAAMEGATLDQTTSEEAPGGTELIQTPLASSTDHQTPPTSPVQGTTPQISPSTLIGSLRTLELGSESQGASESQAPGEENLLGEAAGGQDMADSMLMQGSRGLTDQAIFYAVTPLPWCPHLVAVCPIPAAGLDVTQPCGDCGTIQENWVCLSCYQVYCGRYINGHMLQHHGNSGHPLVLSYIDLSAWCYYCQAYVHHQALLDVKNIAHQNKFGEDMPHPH

Row | IC50 [nM] | SMILES
1 | 16 | C[C@H]1CN(Cc2ccc(Nc3nccc(-c4ccc(C(=O)NO)cc4)n3)cc2F)CCO1 [Compound I-15, (S)-4-(2-((3-fluoro-4-((2-methylmorpholino)methyl)phenyl)amino)pyrimidin-4-yl)-N-hydroxybenzamide]

same assay, conditions: read-out: HDAC6 IC50

Row | IC50 [nM] | SMILES
2 | > 100000 | N#CNC(=O)c1ccc(-c2ccnc(Nc3ccc(C(=O)N4CCOCC4)c(F)c3)n2)cc1 [Compound I-2, N-cyano-4-(2-((3-fluoro-4-(morpholine-4-carbonyl)phenyl)amino)pyrimidin-4-yl)benzamide]
3 | 1000 to 10000 | CCNNC(=O)c1ccc(-c2ccnc(NC(=O)N3CCOCC3)n2)cc1 [Compound I-20, N-(4-(4-(2-ethylhydrazine-1-carbonyl)phenyl)pyrimidin-2-yl)morpholine-4-carboxamide]
4 | < 1000 | CCNNC(=O)c1ccc(-c2ccnc(N3CCOCC3)n2)cc1 [Compound I-21, N′-ethyl-4-(2-morpholinopyrimidin-4-yl)benzohydrazide]
5 | < 1000 | CCNNC(=O)c1ccc(-c2ccnc(Nc3ccc(C(=O)N4CCOCC4)cc3)n2)cc1 [Compound I-19, N′-ethyl-4-(2-((4-(morpholine-4-carbonyl)phenyl)amino)pyrimidin-4-yl)benzohydrazide]
6 | > 100000 | CCNNC(=O)c1ccc(-c2nc(N3CCC4(CC3)COC4)ncc2Cl)cc1 [Compound I-24, 4-(5-chloro-2-(2-oxa-7-azaspiro[3.5]nonan-7-yl)pyrimidin-4-yl)-N′-ethylbenzohydrazide]
7 | < 1000 | CC1CN(CC(=O)Nc2nccc(-c3ccc(C(=O)NO)cc3)n2)CCO1 (centres unmarked) [Compound I-14, N-hydroxy-4-(2-(2-(2-methylmorpholino)acetamido)pyrimidin-4-yl)benzamide]
8 | < 1000 | CCNNC(=O)c1ccc(-c2ccnc(Nc3ccc(C(=O)N4CCOCC4)c(F)c3)n2)cc1 [Compound I-18, N′-ethyl-4-(2-((3-fluoro-4-(morpholine-4-carbonyl)phenyl)amino)pyrimidin-4-yl)benzohydrazide]
9 | 1000 to 10000 | Cc1cc(-c2ccnc(Nc3ccc(N4CCOC(C)C4)c(F)c3)n2)ccc1C(=O)NO (centres unmarked) [Compound I-12, 4-(2-((3-fluoro-4-(2-methylmorpholino)phenyl)amino)pyrimidin-4-yl)-N-hydroxy-2-methylbenzamide]
10 | < 1000 | CC1CCN(Cc2ccc(Nc3nccc(-c4ccc(C(=O)NO)cc4)n3)cc2F)CC1 [Compound I-6, 4-(2-((3-fluoro-4-((4-methylpiperidin-1-yl)methyl)phenyl)amino)pyrimidin-4-yl)-N-hydroxybenzamide]
11 | 1000 to 10000 | Fc1cc(Nc2nccc(-c3ccc(-c4nnc(C(F)F)o4)cn3)n2)ccc1N1CCOCC1 [Compound I-40, 4-(5-(5-(difluoromethyl)-1,3,4-oxadiazol-2-yl)pyridin-2-yl)-N-(3-fluoro-4-morpholinophenyl)pyrimidin-2-amine]
12 | < 1000 | C[C@H]1CN(Cc2ccc(Nc3nccc(-c4ccc(C(=O)NO)cc4)n3)cc2F)CCO1 [Compound I-15, (S)-4-(2-((3-fluoro-4-((2-methylmorpholino)methyl)phenyl)amino)pyrimidin-4-yl)-N-hydroxybenzamide]
13 | 10000 to 35000 | C[C@@H]1CN(Cc2ccc(Nc3nccc(-c4ccc(-c5nnc(C(F)F)o5)cn4)n3)cc2F)CCO1 [Compound I-35, (R)-4-(5-(5-(difluoromethyl)-1,3,4-oxadiazol-2-yl)pyridin-2-yl)-N-(3-fluoro-4-((2-methylmorpholino)methyl)phenyl)pyrimidin-2-amine]
14 | < 1000 | CC(c1ccc(Nc2nccc(-c3ccc(C(=O)NO)cc3)n2)cc1F)N1CCN(C)CC1 (centres unmarked) [Compound I-10, 4-(2-((3-fluoro-4-(1-(4-methylpiperazin-1-yl)ethyl)phenyl)amino)pyrimidin-4-yl)-N-hydroxybenzamide]
15 | 1000 to 10000 | C[C@H]1CN(Cc2ccc(Nc3nccc(-c4ccc(-c5nnc(C(F)F)o5)cc4)n3)cc2F)CCO1 [Compound I-30, (S)-4-(4-(5-(difluoromethyl)-1,3,4-oxadiazol-2-yl)phenyl)-N-(3-fluoro-4-((2-methylmorpholino)methyl)phenyl)pyrimidin-2-amine]
16 | < 1000 | CC1CN(c2ccc(Nc3nccc(-c4ccc(C(=O)NO)cc4)n3)cc2F)CCO1 (centres unmarked) [Compound I-11, 4-(2-((3-fluoro-4-(2-methylmorpholino)phenyl)amino)pyrimidin-4-yl)-N-hydroxybenzamide]
17 | < 1000 | O=C(NO)c1ccc(-c2ccnc(Nc3ccc(C(=O)N4CCOCC4)c(F)c3)n2)cc1 [Compound I-1, 4-(2-((3-fluoro-4-(morpholine-4-carbonyl)phenyl)amino)pyrimidin-4-yl)-N-hydroxybenzamide]
18 | > 100000 | CCNNC(=O)c1ccc(-c2nc(N3CCOCC3)ncc2Cl)cc1 [Compound I-22, 4-(5-chloro-2-morpholinopyrimidin-4-yl)-N′-ethylbenzohydrazide]
19 | 1000 to 10000 | C[C@H]1CN(c2ccc(Nc3nccc(-c4ccc(-c5nnc(C(F)F)o5)cn4)n3)cc2F)CCO1 [Compound I-38, (S)-4-(5-(5-(difluoromethyl)-1,3,4-oxadiazol-2-yl)pyridin-2-yl)-N-(3-fluoro-4-(2-methylmorpholino)phenyl)pyrimidin-2-amine]
20 | 1000 to 10000 | C[C@@H]1CN(Cc2ccc(Nc3nccc(-c4ccc(-c5nnc(C(F)F)o5)cc4)n3)cc2F)CCO1 [Compound I-32, (R)-4-(4-(5-(difluoromethyl)-1,3,4-oxadiazol-2-yl)phenyl)-N-(3-fluoro-4-((2-methylmorpholino)methyl)phenyl)pyrimidin-2-amine TFA salt]
21 | 1000 to 10000 | C[C@@H]1CN(c2ccc(Nc3nccc(-c4ccc(-c5nnc(C(F)F)o5)cn4)n3)cc2F)CCO1 [Compound I-39, (R)-4-(5-(5-(difluoromethyl)-1,3,4-oxadiazol-2-yl)pyridin-2-yl)-N-(3-fluoro-4-(2-methylmorpholino)phenyl)pyrimidin-2-amine]
22 | 1000 to 10000 | C[C@H]1CN(Cc2ccc(-c3ccnc(Nc4ccc(-c5nnc(C(F)F)o5)cc4F)n3)c(F)c2)CCO1 [Compound I-36, (S)-N-(4-(5-(difluoromethyl)-1,3,4-oxadiazol-2-yl)-2-fluorophenyl)-4-(2-fluoro-4-((2-methylmorpholino)methyl)phenyl)pyrimidin-2-amine]
23 | < 1000 | C[C@@H]1CN(Cc2ccc(Nc3nccc(-c4ccc(-c5nnc(C(F)F)o5)cc4F)n3)cc2F)CCO1 [Compound I-33, (R)-4-(4-(5-(difluoromethyl)-1,3,4-oxadiazol-2-yl)-2-fluorophenyl)-N-(3-fluoro-4-((2-methylmorpholino)methyl)phenyl)pyrimidin-2-amine]
24 | < 1000 | CC1CCN(C(=O)c2ccc(Nc3nccc(-c4ccc(C(=O)NO)cc4)n3)cc2F)CC1 [Compound I-3, 4-(2-((3-fluoro-4-(4-methylpiperidine-1-carbonyl)phenyl)amino)pyrimidin-4-yl)-N-hydroxybenzamide]
25 | 1000 to 10000 | C[C@H]1CN(Cc2ccc(Nc3nccc(-c4ccc(-c5nnc(C(F)F)o5)cn4)n3)cc2F)CCO1 [Compound I-34, (S)-4-(5-(5-(difluoromethyl)-1,3,4-oxadiazol-2-yl)pyridin-2-yl)-N-(3-fluoro-4-((2-methylmorpholino)methyl)phenyl)pyrimidin-2-amine]
26 | < 1000 | CN1CCN(C(=O)c2ccc(Nc3nccc(-c4ccc(C(=O)NO)cc4)n3)cc2F)CC1 [Compound I-4, 4-(2-((3-fluoro-4-(4-methylpiperazine-1-carbonyl)phenyl)amino)pyrimidin-4-yl)-N-hydroxybenzamide]
